Assay results reported in the kinase profiling compilation of Christmann-Franck et al. (2016).

How the values were obtained:
Experiment in all cases: KINOMEscan competition binding
Conditions in all cases: compound 10.0 µM
[1] = molecular target: DCLK3 (human) (UniProt Q9C098)
[2] = molecular target: PTK6 (human) (UniProt Q13882)
[3] = molecular target: CDK18 (human) (UniProt Q07002)
[4] = molecular target: TGFBR1 (human) (UniProt P36897)
[5] = molecular target: PIP5K1C (human) (UniProt O60331)
[6] = molecular target: INSRR (human) (UniProt P14616)
[7] = molecular target: MAPKAPK2 (human) (UniProt P49137)
[8] = molecular target: ZAP70 (human) (UniProt P43403)
[9] = molecular target: IRAK4 (human) (UniProt Q9NWZ3)
[10] = molecular target: OXSR1 (human) (UniProt O95747)
[11] = molecular target: SBK1 (human) (UniProt Q52WX2)
[12] = molecular target: STK32B (human) (UniProt Q9NY57)
[13] = molecular target: MAP3K10 (human) (UniProt Q02779)
[14] = molecular target: RET (human) (UniProt P07949)
[15] = molecular target: MAP2K1 (human) (UniProt Q02750)
[16] = molecular target: CDKL5 (human) (UniProt O76039)
[17] = molecular target: TAOK2 (human) (UniProt Q9UL54)
[18] = molecular target: SIK1 (human) (UniProt P57059)
[19] = molecular target: ADCK3 (human) (UniProt Q8NI60)
[20] = molecular target: MAPK9 (human) (UniProt P45984)
[21] = molecular target: PRKCQ (human) (UniProt Q04759)
[22] = molecular target: ABL2 (human) (UniProt P42684)
[23] = molecular target: ROCK2 (human) (UniProt O75116)
[24] = molecular target: MYLK3 (human) (UniProt Q32MK0)
[25] = molecular target: EPHA6 (human) (UniProt Q9UF33)
[26] = molecular target: PAK6 (human) (UniProt Q9NQU5)
[27] = molecular target: FLT1 (human) (UniProt P17948)
[28] = molecular target: HIPK4 (human) (UniProt Q8NE63)
[29] = molecular target: DAPK1 (human) (UniProt P53355)
[30] = molecular target: MELK (human) (UniProt Q14680)
[31] = molecular target: CDK13 (human) (UniProt Q14004)
[32] = molecular target: PKMYT1 (human) (UniProt Q99640)
[33] = molecular target: CSNK2A2 (human) (UniProt P19784)
[34] = molecular target: MAPK4 (human) (UniProt P31152)
[35] = molecular target: MYLK2 (human) (UniProt Q9H1R3)
[36] = molecular target: STK32C (human) (UniProt Q86UX6)
[37] = molecular target: PAK4 (human) (UniProt O96013)
[38] = molecular target: FER (human) (UniProt P16591)
[39] = molecular target: SRC (human) (UniProt P12931)
[40] = system: EGFR (human), P00533 [T790M/L858R]

Chain of MYLK3 (human) (Q32MK0 whole entry, looked up): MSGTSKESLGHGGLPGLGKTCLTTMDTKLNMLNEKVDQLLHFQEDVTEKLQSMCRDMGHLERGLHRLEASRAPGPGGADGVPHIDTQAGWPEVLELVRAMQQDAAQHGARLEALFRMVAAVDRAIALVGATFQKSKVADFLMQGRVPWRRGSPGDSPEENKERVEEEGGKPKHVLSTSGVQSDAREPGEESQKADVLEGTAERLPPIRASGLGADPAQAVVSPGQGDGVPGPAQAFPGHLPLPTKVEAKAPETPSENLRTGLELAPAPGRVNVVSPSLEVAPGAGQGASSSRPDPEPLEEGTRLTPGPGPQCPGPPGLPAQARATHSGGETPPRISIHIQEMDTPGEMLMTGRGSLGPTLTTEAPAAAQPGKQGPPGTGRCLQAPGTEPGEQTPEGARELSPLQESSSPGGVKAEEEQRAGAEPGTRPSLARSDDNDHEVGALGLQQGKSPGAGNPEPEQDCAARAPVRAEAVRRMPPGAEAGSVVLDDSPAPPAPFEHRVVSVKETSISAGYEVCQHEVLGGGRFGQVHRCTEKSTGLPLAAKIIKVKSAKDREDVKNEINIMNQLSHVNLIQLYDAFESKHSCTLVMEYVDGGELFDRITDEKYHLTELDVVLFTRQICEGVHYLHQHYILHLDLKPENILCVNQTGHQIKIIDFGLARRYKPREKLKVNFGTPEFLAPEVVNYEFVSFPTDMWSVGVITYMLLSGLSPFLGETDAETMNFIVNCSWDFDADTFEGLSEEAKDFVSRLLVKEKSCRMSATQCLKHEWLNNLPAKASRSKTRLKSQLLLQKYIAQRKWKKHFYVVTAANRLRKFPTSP
Chain of HIPK4 (human) (Q8NE63 whole entry, looked up): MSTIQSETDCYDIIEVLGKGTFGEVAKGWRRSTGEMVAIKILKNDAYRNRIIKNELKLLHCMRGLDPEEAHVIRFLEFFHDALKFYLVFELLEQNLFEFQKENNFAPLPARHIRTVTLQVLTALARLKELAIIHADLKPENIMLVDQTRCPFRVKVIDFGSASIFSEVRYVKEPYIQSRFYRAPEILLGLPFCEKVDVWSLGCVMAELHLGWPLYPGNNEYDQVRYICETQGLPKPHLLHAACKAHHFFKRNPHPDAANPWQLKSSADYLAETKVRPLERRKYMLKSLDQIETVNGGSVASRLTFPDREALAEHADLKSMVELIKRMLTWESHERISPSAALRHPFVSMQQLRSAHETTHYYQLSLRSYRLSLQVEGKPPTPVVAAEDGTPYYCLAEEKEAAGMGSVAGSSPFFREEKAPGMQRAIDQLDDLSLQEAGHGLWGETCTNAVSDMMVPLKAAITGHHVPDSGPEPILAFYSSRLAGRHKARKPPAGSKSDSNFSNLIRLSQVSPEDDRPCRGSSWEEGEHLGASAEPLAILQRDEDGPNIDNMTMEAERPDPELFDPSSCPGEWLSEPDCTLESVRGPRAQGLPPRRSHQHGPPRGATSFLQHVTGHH
Chain of DAPK1 (human) (P53355 whole entry, looked up): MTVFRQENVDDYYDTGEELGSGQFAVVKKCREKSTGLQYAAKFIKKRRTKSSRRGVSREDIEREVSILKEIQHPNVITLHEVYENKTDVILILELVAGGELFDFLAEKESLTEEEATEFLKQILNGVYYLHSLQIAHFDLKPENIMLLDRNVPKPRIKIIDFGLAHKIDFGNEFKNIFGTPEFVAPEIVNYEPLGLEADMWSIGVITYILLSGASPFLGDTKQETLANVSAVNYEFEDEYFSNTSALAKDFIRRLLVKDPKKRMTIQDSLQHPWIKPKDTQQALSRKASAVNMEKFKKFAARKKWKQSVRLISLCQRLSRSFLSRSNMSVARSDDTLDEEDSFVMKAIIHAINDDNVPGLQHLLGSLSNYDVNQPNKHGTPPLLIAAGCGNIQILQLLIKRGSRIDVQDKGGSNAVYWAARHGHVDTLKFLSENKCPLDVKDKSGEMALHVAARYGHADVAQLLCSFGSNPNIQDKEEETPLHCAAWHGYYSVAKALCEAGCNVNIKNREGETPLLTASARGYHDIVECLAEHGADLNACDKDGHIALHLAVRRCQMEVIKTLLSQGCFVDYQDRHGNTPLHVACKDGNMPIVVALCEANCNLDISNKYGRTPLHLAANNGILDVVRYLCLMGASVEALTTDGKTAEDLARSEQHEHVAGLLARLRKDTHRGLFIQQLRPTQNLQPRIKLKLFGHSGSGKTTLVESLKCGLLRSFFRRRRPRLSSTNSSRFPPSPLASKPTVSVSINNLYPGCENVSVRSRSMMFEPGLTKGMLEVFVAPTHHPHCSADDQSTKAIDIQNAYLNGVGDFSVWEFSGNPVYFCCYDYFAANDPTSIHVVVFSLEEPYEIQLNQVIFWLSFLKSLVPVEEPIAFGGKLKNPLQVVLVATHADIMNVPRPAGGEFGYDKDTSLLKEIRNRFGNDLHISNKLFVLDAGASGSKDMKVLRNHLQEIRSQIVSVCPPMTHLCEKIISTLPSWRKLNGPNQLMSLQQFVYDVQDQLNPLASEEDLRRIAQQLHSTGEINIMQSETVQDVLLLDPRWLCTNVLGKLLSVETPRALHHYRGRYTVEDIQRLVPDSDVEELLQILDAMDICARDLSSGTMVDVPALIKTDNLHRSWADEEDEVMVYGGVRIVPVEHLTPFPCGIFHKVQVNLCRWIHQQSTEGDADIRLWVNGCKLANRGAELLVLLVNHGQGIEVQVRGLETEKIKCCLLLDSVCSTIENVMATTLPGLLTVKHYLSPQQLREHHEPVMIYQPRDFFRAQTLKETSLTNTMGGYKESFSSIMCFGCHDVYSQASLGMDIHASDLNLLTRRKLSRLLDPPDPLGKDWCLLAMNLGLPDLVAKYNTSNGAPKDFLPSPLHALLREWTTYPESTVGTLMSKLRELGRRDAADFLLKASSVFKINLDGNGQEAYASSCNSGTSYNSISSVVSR
Chain of PIP5K1C (human) (O60331 whole entry, looked up): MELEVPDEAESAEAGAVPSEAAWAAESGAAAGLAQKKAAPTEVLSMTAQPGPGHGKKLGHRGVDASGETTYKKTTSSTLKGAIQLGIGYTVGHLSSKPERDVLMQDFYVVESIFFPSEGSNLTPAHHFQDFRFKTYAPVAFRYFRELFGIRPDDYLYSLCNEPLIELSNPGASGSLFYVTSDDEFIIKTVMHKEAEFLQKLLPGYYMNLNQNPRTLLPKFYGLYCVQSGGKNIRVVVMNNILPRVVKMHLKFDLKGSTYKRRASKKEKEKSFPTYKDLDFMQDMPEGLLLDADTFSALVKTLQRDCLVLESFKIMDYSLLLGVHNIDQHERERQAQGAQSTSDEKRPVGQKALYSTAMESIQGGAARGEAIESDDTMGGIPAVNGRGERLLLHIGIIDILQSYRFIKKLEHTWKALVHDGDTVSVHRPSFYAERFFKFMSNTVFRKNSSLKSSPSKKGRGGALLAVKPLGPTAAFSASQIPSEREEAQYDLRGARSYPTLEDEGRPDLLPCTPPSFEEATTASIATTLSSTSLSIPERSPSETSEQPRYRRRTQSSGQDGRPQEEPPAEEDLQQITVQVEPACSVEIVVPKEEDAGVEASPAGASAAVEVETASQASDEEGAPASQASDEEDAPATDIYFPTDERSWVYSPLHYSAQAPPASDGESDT
Chain of CDKL5 (human) (O76039 whole entry, looked up): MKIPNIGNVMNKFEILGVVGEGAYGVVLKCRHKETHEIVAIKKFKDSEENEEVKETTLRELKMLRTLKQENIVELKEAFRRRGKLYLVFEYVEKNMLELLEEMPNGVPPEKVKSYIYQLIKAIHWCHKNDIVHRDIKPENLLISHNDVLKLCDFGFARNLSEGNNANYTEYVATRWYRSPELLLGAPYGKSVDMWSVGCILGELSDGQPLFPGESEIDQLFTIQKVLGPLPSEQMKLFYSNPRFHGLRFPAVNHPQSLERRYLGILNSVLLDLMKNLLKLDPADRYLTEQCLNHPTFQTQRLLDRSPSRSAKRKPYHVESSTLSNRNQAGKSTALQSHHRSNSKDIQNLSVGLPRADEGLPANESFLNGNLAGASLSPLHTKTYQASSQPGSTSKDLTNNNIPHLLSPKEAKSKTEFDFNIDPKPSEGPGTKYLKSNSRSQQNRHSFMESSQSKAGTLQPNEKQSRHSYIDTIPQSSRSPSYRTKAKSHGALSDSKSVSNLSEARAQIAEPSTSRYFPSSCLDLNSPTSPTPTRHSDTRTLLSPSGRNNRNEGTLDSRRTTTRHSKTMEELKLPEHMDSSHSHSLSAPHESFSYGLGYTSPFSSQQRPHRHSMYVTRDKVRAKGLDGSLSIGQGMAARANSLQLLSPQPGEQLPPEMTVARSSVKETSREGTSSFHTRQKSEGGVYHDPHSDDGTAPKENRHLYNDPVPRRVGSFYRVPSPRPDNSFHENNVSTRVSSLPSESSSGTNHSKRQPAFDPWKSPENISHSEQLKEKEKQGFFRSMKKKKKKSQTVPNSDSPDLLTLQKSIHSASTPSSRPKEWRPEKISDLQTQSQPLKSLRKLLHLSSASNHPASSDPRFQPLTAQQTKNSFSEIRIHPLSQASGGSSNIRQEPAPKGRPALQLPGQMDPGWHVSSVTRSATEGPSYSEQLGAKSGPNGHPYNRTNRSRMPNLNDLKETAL
Chain of MAPK9 (human) (P45984 whole entry, looked up): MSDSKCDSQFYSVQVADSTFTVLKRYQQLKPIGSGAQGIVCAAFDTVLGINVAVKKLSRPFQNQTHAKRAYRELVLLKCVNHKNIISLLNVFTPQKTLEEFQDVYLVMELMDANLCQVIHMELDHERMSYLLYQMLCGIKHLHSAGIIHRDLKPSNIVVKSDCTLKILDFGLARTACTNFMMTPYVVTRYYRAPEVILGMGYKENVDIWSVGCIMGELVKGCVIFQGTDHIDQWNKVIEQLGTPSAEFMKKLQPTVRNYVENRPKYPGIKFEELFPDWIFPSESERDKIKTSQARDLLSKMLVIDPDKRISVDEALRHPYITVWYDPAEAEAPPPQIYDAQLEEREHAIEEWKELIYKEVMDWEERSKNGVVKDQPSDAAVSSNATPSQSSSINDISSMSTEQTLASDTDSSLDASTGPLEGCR

Row | SMILES | kinase still bound, per cent of control [1] [%] | kinase still bound, per cent of control [2] [%] | kinase still bound, per cent of control [4] [%] | kinase still bound, per cent of control [5] [%] | kinase still bound, per cent of control [6] [%] | kinase still bound, per cent of control [7] [%] | kinase still bound, per cent of control [8] [%] | kinase still bound, per cent of control [9] [%] | kinase still bound, per cent of control [10] [%] | kinase still bound, per cent of control [11] [%] | kinase still bound, per cent of control [12] [%] | kinase still bound, per cent of control [13] [%] | kinase still bound, per cent of control [14] [%] | kinase still bound, per cent of control [15] [%] | kinase still bound, per cent of control [16] [%] | kinase still bound, per cent of control [17] [%] | kinase still bound, per cent of control [18] [%] | kinase still bound, per cent of control [19] [%] | kinase still bound, per cent of control [20] [%] | kinase still bound, per cent of control [23] [%] | other results
1 | COCC(=O)NC/C=C/c1ccc2ncnc(Nc3ccc(Oc4ccc(C)nc4)c(C)c3)c2c1 | 83 | 100 | 100 | 93 | 100 | 100 | 100 | 100 | 100 | 100 | 92 | 100 | 87 | 9.4 | 100 | 100 | 100 | 100 | 53 | 100 | kinase still bound, per cent of control [3]: 99%; kinase still bound, per cent of control [21]: 100%; kinase still bound, per cent of control [22]: 100%; kinase still bound, per cent of control [24]: 100%; kinase still bound, per cent of control [25]: 96%; kinase still bound, per cent of control [26]: 89%; kinase still bound, per cent of control [27]: 88%; kinase still bound, per cent of control [28]: 95%; kinase still bound, per cent of control [29]: 76%; kinase still bound, per cent of control [30]: 92%; kinase still bound, per cent of control [31]: 100%; kinase still bound, per cent of control [32]: 100%; kinase still bound, per cent of control [33]: 100%; kinase still bound, per cent of control [34]: 100%; kinase still bound, per cent of control [35]: 100%; kinase still bound, per cent of control [36]: 86%; kinase still bound, per cent of control [37]: 87%; kinase still bound, per cent of control [38]: 100%; kinase still bound, per cent of control [39]: 97%
2 | N#CCNC(=O)c1ccc(-c2ccnc(Nc3ccc(N4CCOCC4)cc3)n2)cc1 | 0.45 | 100 | 76 | 54 | 100 | 100 | 91 | 64 | 58 | 46 | 93 | 62 | 50 | 100 | 65 | 100 | 62 | 90 | 26 | 0.7 | kinase still bound, per cent of control [21]: 100%; kinase still bound, per cent of control [22]: 57%; kinase still bound, per cent of control [24]: 68%; kinase still bound, per cent of control [25]: 98%; kinase still bound, per cent of control [26]: 100%; kinase still bound, per cent of control [27]: 55%; kinase still bound, per cent of control [28]: 12%; kinase still bound, per cent of control [29]: 7%; kinase still bound, per cent of control [30]: 100%; kinase still bound, per cent of control [31]: 91%; kinase still bound, per cent of control [32]: 100%; kinase still bound, per cent of control [33]: 6.2%; kinase still bound, per cent of control [34]: 93%; kinase still bound, per cent of control [35]: 23%; kinase still bound, per cent of control [36]: 100%; kinase still bound, per cent of control [37]: 100%; kinase still bound, per cent of control [38]: 100%; kinase still bound, per cent of control [39]: 100%
3 | COc1cc2ncn(-c3cc(OCc4ccccc4C(F)(F)F)c(C(N)=O)s3)c2cc1OC | 100 | 84 | 86 | 10 | 100 | 100 | 95 | 58 | 100 | 96 | 100 | 98 | 39 | 67 | 73 | 100 | 40 | 61 | 78 | 100 | kinase still bound, per cent of control [3]: 83%; kinase still bound, per cent of control [24]: 100%; kinase still bound, per cent of control [25]: 59%; kinase still bound, per cent of control [26]: 94%; kinase still bound, per cent of control [27]: 58%; kinase still bound, per cent of control [28]: 15%; kinase still bound, per cent of control [29]: 8.6%; kinase still bound, per cent of control [30]: 61%; kinase still bound, per cent of control [31]: 76%; kinase still bound, per cent of control [32]: 60%; kinase still bound, per cent of control [33]: 17%; kinase still bound, per cent of control [34]: 100%; kinase still bound, per cent of control [35]: 59%; kinase still bound, per cent of control [36]: 100%; kinase still bound, per cent of control [37]: 100%; kinase still bound, per cent of control [38]: 100%; kinase still bound, per cent of control [39]: 64%
4 | NC(=O)Nc1cc(-c2cccc(F)c2)sc1C(=O)N[C@@H]1CCCNC1 | 56 | 1.4 | 47 | 27 | 22 | 0 | 0 | 0 | 0.45 | 0 | 1 | 1.2 | 0 | 0 | 100 | 35 | 0.3 | 93 | 38 | 0.2 | kinase still bound, per cent of control [3]: 100%; kinase still bound, per cent of control [40]: 5%; kinase still bound, per cent of control [21]: 0%; kinase still bound, per cent of control [22]: 0.2%; kinase still bound, per cent of control [24]: 10%; kinase still bound, per cent of control [25]: 8.2%; kinase still bound, per cent of control [26]: 0.35%; kinase still bound, per cent of control [27]: 0.1%; kinase still bound, per cent of control [28]: 38%; kinase still bound, per cent of control [29]: 0.1%; kinase still bound, per cent of control [30]: 1.4%; kinase still bound, per cent of control [31]: 100%; kinase still bound, per cent of control [32]: 33%; kinase still bound, per cent of control [33]: 5.9%; kinase still bound, per cent of control [34]: 61%; kinase still bound, per cent of control [35]: 67%; kinase still bound, per cent of control [36]: 53%; kinase still bound, per cent of control [37]: 1.2%; kinase still bound, per cent of control [39]: 0.05%
